We go through 6 compounds from US20090264425A1, “CHEMICAL COMPOUNDS” (PFIZER LIMITED, priority 2004, published 2009).

For the experiment, the target named is T1, HIV-1 reverse transcriptase (Human immunodeficiency virus type 1 group M subtype B, UniProt P04585).
T1 construct: purified recombinant HIV-1 reverse transcriptase (RT, EC, 2.7.7.49); made in house; host or cells: Escherichia coli
The experiment is described as follows: Inhibition of HIV-1 reverse transcriptase enzyme ([3H]-Flashplate enzyme assay, 384-well). Format: biochemical. The following applies: purified recombinant HIV-1 RT expressed in Escherichia Coli; 5% final DMSO. An excerpt: The activity of the compounds of the invention as reverse transcriptase inhibitors may be measured using the following assay.
Inhibition of HIV-1 Reverse Transcriptase Enzyme
The reverse transcriptase activity of the compounds of the invention may be assayed as follows. Using the purified recombinant HIV-1 reverse transcriptase (RT, EC, 2.7.7.49) obtained by expression in Escherichia Coli, a 384-well plate assay system was established for assaying a large number of samples using the [3H]-Flashplate enzyme assay system (NEN-SMP 410A) following the manufacturer's recommendations. The compounds were dissolved in 100% DMSO and diluted with the appropriate buffer to a 5% final DMSO concentration. The inhibitory activity was expressed in percent inhibition relative to the DMSO control.

For `N#Cc1cc(Cl)cc(Oc2cc(Cl)ccc2OCC(=O)N2CCCc3cc(S(N)(=O)=O)ccc32)c1` [Example 1, 1-{[4-Chloro-2-(3-chloro-5-cyanophenoxy)phenoxy]acetyl}-1,2,3,4-tetrahydroquinoline-6-sulfonamide], the IC50 was 26.1 nM.

Consider `N#Cc1cc(Cl)cc(Oc2cc(Cl)ccc2OCC(=O)Nc2ccc(S(N)(=O)=O)cc2Cl)c1` [Example 9, N-[4-(Aminosulfonyl)-2-chlorophenyl]-2-[4-chloro-2-(3-chloro-5-cyanophenoxy)phenoxy]acetamide], for which the IC50 was 6 nM. Take `N#Cc1cc(Cl)cc(Oc2cc(Cl)ccc2OCC(=O)N2CCc3ccc(S(=O)(=O)N4CCOCC4)cc3C2)c1` [Example 16]: the IC50 is 541 nM. To `Cc1cc(CN(C)C(=O)COc2cc(Cl)ccc2Oc2cc(Cl)cc(C#N)c2)on1` [Example 25] belongs 2180 nM; to `Cc1nc(S(N)(=O)=O)ccc1NC(=O)COc1ccc(Cl)cc1Sc1cc(Cl)cc(C#N)c1` [Example 46, N-[6-(Aminosulfonyl)-2-methylpyridin-3-yl]-2-{4-chloro-2-[(3-chloro-5-cyanophenyl)thio]phenoxy}acetamide], 27.7 nM. To `Cc1cnccc1NC(=O)COc1cc(Cl)ccc1Oc1cc(Cl)cc(C#N)c1` [Example 50] belongs 5.68 nM.

The term IC50 denotes the concentration at which inhibition is half-maximal.
